Marks after values point to notes of the source that are not given here.
Key:
Type in all cases: in vivo, human
[1] = tested on: Type II diabetic patients; test: Tolerability / adverse events in 24 week omeprazole trial (Example 4); conditions: all doses (40 mg and 80 mg twice daily), 24 weeks
Source text: (§1) Subjects: Five males, 2 females, age range 42-68 years, mean age 54+10 years. BMI's ranged from 31 to 49, mean 38+6. All subjects had co-morbid hypertension, four had co-morbid dyslipidemia and two had co-morbid hypothyroidism. All were stable on oral diabetes medications with 7/7 on metformin, 6/7 on pioglitazone (Actos), 4/7 on a DPP-4 inhibitor, sitagliptan (Januvia) and 4/7 on a Sulfonylurea. All subjects received a physical exam, review of systems and a baseline EKG prior to initiating the PPI trial. Subjects were then seen and evaluated at monthly intervals interviewed for adverse events and monitored for medication compliance and maintenance of daily blood glucose logs.
(§2) Design: All subjects continued on their respective oral antidiabetic medications throughout the study. Baseline data was obtained in a fasting state after an overnight fast. Subjects were then administered 75 g of glucose and blood samples obtained at 1 and 2 hours. Following collection of baseline data, subjects were administered Omeprazole Delayed-Release Capsules USP, (Apotex Inc., Toronto, Canada M9L 179), 40 mg orally twice daily and blood samples again obtained after 8, and 16 weeks. Medications were not taken on the mornings of testing. Following the 16 week sample collection, subjects were increased to 80 mg Omeprazole twice daily and blood samples again obtained at 24 weeks.

[2] = tested on: Type II diabetic patients; test: 2 hour glucose tolerance test during 24 week omeprazole trial (Example 4); conditions: for C-Peptide 1 hour / C-Peptide 2 hours / Glucose 1 hour / Glucose 2 hours / Insulin 1 hour / Insulin 2 hours: after 75 g glucose
Experimental: (§3) Seven Type II diabetic patients were administered omeprazole for 24 weeks and data was obtained from fasting and following a 2 hour glucose tolerance test at 8 week intervals and compared to baseline values. Statistical comparisons and analysis were performed with a commercial program, Analyse-it, version 2.20.
as §1, §2
(§4) Measurements: Helicobacter Pylori IgG was obtained on each subject as a baseline as were Hemoglobin A1c and fasting Gastrin. Each 2 hour glucose tolerance test provided fasting glucose, insulin and c-peptide as well as 1 hour and 2 hour glucose and stimulated insulin and c-peptide. All measurements were obtained through a commercial laboratory using standardized analytical methods, Quest Diagnostics Laboratory, 5850 Rogerdale Road, Houston, Tex. 77072.

[3] = tested on: Type II diabetic patients; test: Hemoglobin A1c, Beta cell area and plasma gastrin during 24 week omeprazole trial (Example 4); conditions: for Beta Cell Area, %: calculated using the 2 hour glucose tolerance value by the method of Meier et al
Experimental: as §3, §1, §2, §4
Table 2 summarizes the effects of PPI administration on plasma Gastrin, Hemoglobin A1c and % Beta Cell area (calculated using the 2 hour glucose tolerance value by the method of Meier et al, Diabetes, vol 58, 1595-1603, 2009). […] Hemoglobin A1c, a measure of average blood glucose, was reduced by approximately 0.9% in this cohort, consistent with improved diabetes control (FIG. 5). Finally, the calculated Beta cell mass increased across the treatment period by approximately 25%.

[4] = tested on: Type II diabetic patients; test: Population comparison of HgbA1c in treated diabetic patients with or without a PPI (Examples 1-3); conditions: Example 2; 53 Metformin only patients, 11 Metformin plus proton pump inhibitor
Experimental: For a population of 347 Type II diabetic patients with recent HgbA1c measurements of an average 7.53% with a standard deviation of +/−1.77%. All were treated using insulin injections and/or a variety of oral agents, such as the above noted metformin, and other anti-diabetic medicines. The patients were treated for differing periods of time ranging from 3 months to 30 years.
The two groups were compared using a two-Sample T test that is a classical statistical test. […] The difference between the two groups was 0.61%, which is a significant difference with a p-value of 0.002.
64 total patients, of which 53 patients that were treated using only Metformin for the treatment of diabetes and 11 took Metformin and a proton pump inhibitor.
In this population, 79 patients were dosed with a sulfonylurea, either alone or in combination with metformin and/or pioglitazone or rosiglitazone. These 79 patients were not provided with insulin or sitagliptin.

[5] = 8 weeks PPI, Omeprazole 40 mg orally twice daily
[6] = 16 weeks PPI, Omeprazole 40 mg orally twice daily
[7] = 24 weeks PPI, increased to 80 mg Omeprazole twice daily after week 16

COc1ccc2[nH]c([S+]([O-])Cc3ncc(C)c(OC)c3C)nc2c1 (centres unmarked) [Omeprazole, 5-methoxy-2-[(4-methoxy-3,5-dimethyl-2-pyridinyl)methyl]sulfinyl-1H-benzimidazole]
Adverse events [1]: no reports of adverse events
Tolerability [1]: well tolerated
C-Peptide Fasting [2, 5]: 4.0
Glucose Fasting [2, 5]: 127
Insulin Fasting [2, 5]: 13.6
C-Peptide 1 hour [2, 5]: 7.1
C-Peptide 2 hours [2, 5]: 8.6***
Glucose 1 hour [2, 5]: 235#
Glucose 2 hours [2, 5]: 226
Insulin 1 hour [2, 5]: 38.7
Insulin 2 hours [2, 5]: 29.9
C-Peptide Fasting [2, 6]: 3.4
Glucose Fasting [2, 6]: 136
Insulin Fasting [2, 6]: 12
C-Peptide 1 hour [2, 6]: 6.0
C-Peptide 2 hours [2, 6]: 7.9#
Glucose 1 hour [2, 6]: 206*
Glucose 2 hours [2, 6]: 229**
Insulin 1 hour [2, 6]: 24.7
Insulin 2 hours [2, 6]: 36.1
C-Peptide Fasting [2, 7]: 3.6
Glucose Fasting [2, 7]: 147
Insulin Fasting [2, 7]: 10.9
C-Peptide 1 hour [2, 7]: 5.8
C-Peptide 2 hours [2, 7]: 7.9+
Glucose 1 hour [2, 7]: 251
Glucose 2 hours [2, 7]: 258
Insulin 1 hour [2, 7]: 25
Insulin 2 hours [2, 7]: 34
1 and 2 hour c-peptide secretion ([2]; after PPI administration): increased
Fasting insulin levels ([2]; after PPI administration): unchanged
Stimulated insulin secretion ([2]; at both 1 and 2 hours, after PPI administration): increased
Maximum glucose excursion versus baseline ([2]; at both 1 and 2 hours, 8 and 16 weeks, statistically significant at 16 weeks): reduced
Fasting blood glucose versus baseline ([2]; at both 8 and 16 weeks): reduced
Percent hemoglobin A1c reduction from baseline ([3]; 8, 16 and 24 weeks after taking PPI, FIG. 5): at least 0.6%
Hemoglobin A1c, % [3, 5]: 7.7%
Plasma Gastrin [3, 5]: 207 pg/mL
Beta Cell Area, % ([3]; 8 weeks PPI): 0.46%
Hemoglobin A1c, % [3, 6]: 7.8%
Plasma Gastrin [3, 6]: 174 pg/mL
Beta Cell Area, % ([3]; 16 weeks PPI): 0.51%
Beta Cell Area, % ([3]; 24 weeks PPI): 0.40%
Hemoglobin A1c, % [3, 7]: 7.9%
Plasma Gastrin [3, 7]: 232 pg/mL
Calculated Beta cell mass increase ([3]; across the treatment period): approximately 25%
Change in percent hemoglobin A1c ([3]; all patients, statistically significant, FIG. 1): decrease
Hemoglobin A1c reduction ([3]; in this cohort of seven patients, versus baseline): approximately 0.9%
Plasma gastrin versus baseline ([3]; long term PPI administration, serum levels gradually reduced over time): markedly elevated
Slope of linear best fit of hemoglobin A1c ([3]; seven type II diabetics, 24 week trial, FIG. 1): −0.021 % (HgbA1c) per week

CN(C)C(=N)N=C(N)N [Metformin]
Average HgbA1c [4]: 7.27%
